According to patent US20210060016A1, “ANTICANCER AGENT” (JAPANESE FOUNDATION FOR CANCER RESEARCH, priority 2017, published 2021):

Key:
[1] = system: human colorectal cancer cell line COLO-320DM; experiment: Cell proliferation inhibitory activity test (Celltiter-Glo); format: cell-based; conditions: 96 hours, read-out: COLO-320DM (cell proliferation inhibitory activity), G150 rating
Procedure: The cell proliferation inhibitory activity of the compound, which had been prepared in each of Compound Examples, against the human colorectal cancer cell line COLO-320DM was evaluated by Celltiter-Glo Luminescent Cell Viability Assay (Promega Corporation; G7573). COLO-320DM cells were cultured in RPMI-1640 medium containing 2 mM glutamine (Wako Pure Chemical Industries, Ltd; 189-02025) supplemented with 10% fetal bovine serum. The cultured cells were washed with PBS, and then dissociated with trypsin/EDTA, and a cell solution with 3×10^4 cells/mL was prepared.
Subsequently, the cell solution was seeded in a 96-well microplate (Thermo/Nunc Company; 136101) in an amount of 70 μL per well, and cultured overnight under the condition of 37° C. and 5% COz. The next day, a test compound solution obtained by diluting the test compound (DMSO solution) with a cell culture medium (final concentration of DMSO was 1%) was added in an amount of 10 μL per well, and the mixture was reacted under the condition of 37° C. and 5% CO2 for 96 hours (a 1% DMSO solution was used as a control). Thereafter, a Celltiter-Glo Luminescent Cell Viability Assay reagent was added (Promega Corporation; G7573) in an amount of 80 μL per well, the mixture was stirred with a shaker for 2 minutes while light was blocked with an aluminum foil, and the mixture was incubated at room temperature for 10 minutes.
Thereafter, a luminescence signal was measured with a luminometer (Biotech Company; Synergy). The ratio of cell proliferation in each compound addition group to cell proliferation in a control group containing no test compound solution, where cell proliferation in the control group is 100%, was determined, and the value of a compound concentration necessary for suppressing the amount of residual cells to 50% of that in the control (G150) was calculated as the cell proliferation inhibitory activity. For the COLO-320DM (cell proliferation inhibitory activity against COLO-320DM) of each test compound as measured through the above-mentioned method, a test compound having a G150 value of less than 1 μM was rated “A”, a test compound having a G150 value of 1 μM or more and less than 10 μM was rated “B”, a test compound having a G150 value of 10 μM or more was rated “C”, and an unevaluated test compound was designated as “NT”.

tankyrase 1 = biological target: T1, tankyrase 1 (Homo sapiens, UniProt O95271); experiment: Tankyrase inhibitory activity test (ELISA, auto-poly(ADP-ribosyl)ation), TNKS1; format: biochemical; conditions: Flag-tagged tankyrase 1 (SAM+PARP), read-out: TNKS1 (inhibitory activity against tankyrase 1), IC50 rating
T1 construct: tankyrase 1 (1,024-1, 327aa, SAM+PARP); made in house; host or cells: cell-free protein expression system
T1 sequence (O95271 1024-1327): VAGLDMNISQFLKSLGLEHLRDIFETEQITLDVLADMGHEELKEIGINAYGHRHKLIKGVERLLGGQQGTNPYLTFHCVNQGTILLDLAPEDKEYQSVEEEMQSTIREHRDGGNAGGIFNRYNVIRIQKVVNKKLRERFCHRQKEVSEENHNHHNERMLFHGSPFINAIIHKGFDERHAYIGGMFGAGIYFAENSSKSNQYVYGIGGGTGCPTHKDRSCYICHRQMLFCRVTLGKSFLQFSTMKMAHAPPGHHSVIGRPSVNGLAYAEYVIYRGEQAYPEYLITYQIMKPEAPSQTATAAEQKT
Procedure: (§1) The enzymatic activity of tankyrase 1 and the enzymatic activity of tankyrase 2 were measured by the ELISA method based on assessment of auto-poly(ADP-ribosyl)ation to evaluate the tankyrase inhibitory activity of the compound prepared in each of Compound Examples (test compound) (inhibitory activity against tankyrase 1 (TNKS1) and inhibitory activity against tankyrase 2 (TNKS2)). First, Flag-tagged tankyrase 1 (1,024-1, 327aa, SAM+PARP) and tankyrase 2 (613-1, 116aa, ANK5+SAM+PARP) were synthesized with a cell-free protein expression system, and diluted with a Tris buffer solution (50 mM Tris-HCl (pH 8.0), 150 mM NaCl, 10% glycerol). 50 μL of the diluted tankyrase 1 or tankyrase 2 was added to a plate with an anti-FLAG M2 monoclonal antibody immobilized thereon (Anti-FLAG High-Sensitivity M2-Coated Plate) (Sigma-Aldrich), and the mixture was left to stand overnight at 4° C. Thereafter, the plate was washed four times with a PBS (PBST) buffer containing 0.1% TritonX-100.
(§2) Subsequently, the test compound diluted with an assay buffer (50 mM Tris-HCl (pH 8.0), 4 mM MgCl2, 0.2 mM DTT) (DMSO was used as a control) was added to each well of the plate, and the mixture was left to stand at room temperature for 10 minutes. Thereafter, a biotin-labeled NAD solution (225 μM NAD, 25 μM 6-Biotin-17-NAD (Travigen, Inc.)) was added and mixed as a donor substrate, and the mixture was reacted at 30° C. for 45 minutes. To blank wells was added distilled water instead of the biotin-labeled NAD solution. After the reaction, the plate was washed with a PBST buffer four times. Thereafter, HRP (horseradish peroxidase)-labeled streptavidin (Travigen, Inc.) was diluted with a PBS buffer by 1,000 times, and added to each well, and the mixture was reacted at room temperature for 20 minutes. The plate was washed with a PBST buffer four times, a chemiluminescent substrate solution TACS-Sapphire (Travigen, Inc.) was then added to each well, the mixture was reacted at room temperature for 20 minutes, and thechemiluminescence intensity was measured using a chemiluminescence measuring apparatus.
(§3) The residual enzymatic activity in the presence of the test compound was determined from the following expression. On the basis of the residual enzymatic activity at each of multiple concentrations of the test compound, the enzyme inhibitory activity was calculated in terms of a 50%-inhibition concentration (IC50 value) using data analysis software Origin (LightStone Corp.). Residual activity (%)={(chemiluminescence intensity with test compound added)−(chemiluminescence intensity of blank)}/{(chemiluminescence intensity of control)−(chemiluminescence intensity of blank))

tankyrase 2 = biological target: T2, tankyrase 2 (Homo sapiens, UniProt Q9H2K2); experiment: Tankyrase inhibitory activity test (ELISA, auto-poly(ADP-ribosyl)ation), TNKS2; format: biochemical; conditions: Flag-tagged tankyrase 2 (ANK5+SAM+PARP), read-out: TNKS2 (inhibitory activity against tankyrase 2), IC50 rating
T2 construct: tankyrase 2 (613-1, 116aa, ANK5+SAM+PARP); made in house; host or cells: cell-free protein expression system
T2 sequence (Q9H2K2 613-1166): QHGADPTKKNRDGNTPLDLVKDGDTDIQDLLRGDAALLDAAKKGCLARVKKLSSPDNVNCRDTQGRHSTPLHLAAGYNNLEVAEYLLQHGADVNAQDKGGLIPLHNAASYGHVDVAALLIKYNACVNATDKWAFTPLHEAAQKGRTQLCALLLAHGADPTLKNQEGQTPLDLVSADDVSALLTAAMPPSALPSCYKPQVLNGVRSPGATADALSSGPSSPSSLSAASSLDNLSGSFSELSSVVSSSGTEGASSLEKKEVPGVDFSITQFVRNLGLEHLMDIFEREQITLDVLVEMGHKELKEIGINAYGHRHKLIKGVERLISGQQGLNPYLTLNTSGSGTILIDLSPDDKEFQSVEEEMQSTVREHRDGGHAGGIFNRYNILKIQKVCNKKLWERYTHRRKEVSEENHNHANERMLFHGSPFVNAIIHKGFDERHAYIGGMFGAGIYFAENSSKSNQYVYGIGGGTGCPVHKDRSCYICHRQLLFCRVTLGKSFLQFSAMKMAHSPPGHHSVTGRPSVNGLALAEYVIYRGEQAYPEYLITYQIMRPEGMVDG
Procedure: as §1, §2, §3

In the case of `COc1ccc(Cl)c2c1N(CC(C)(C)O)C(=O)C21CCN(c2nc3c(c(=O)[nH]2)CCCN3C)CC1` [Example 14], the IC50 [1] is reported as under 1000 nM.

Work on `CN1CCCc2c(O)nc(N3CCC4(CC3)OC(=O)c3cc(-c5cnn(C)c5)cc(F)c34)nc21` [Example 16] yielded an IC50 [1] of under 1000 nM.

For `O=c1[nH]c(N2CCC3(CC2)CN(CCO)c2cc(F)cc(F)c23)nc2c1CCCC2` [Example 1], the IC50 [1] was 1000 to 10000 nM, the IC50 (tankyrase 1) was under 20 nM and the IC50 (tankyrase 2) was under 20 nM.

With `COC(=O)N1CCN(c2cc(F)c3c(c2)N(C)C(=O)C32CCN(c3nc4c(c(=O)[nH]3)CCCN4C)CC2)CC1` [Example 18] the IC50 [1] was under 1000 nM.

Work on `CN1CCCc2c1nc(N1CCC3(CC1)C(=O)N(C)c1cc(OC4CCOCC4)cc(F)c13)[nH]c2=O` [Example 7] yielded an IC50 [1] of under 1000 nM.

With `Cc1cccc2c1NC(c1n[nH]nc1-c1ccc(OCC(F)F)cc1)NC2=O` (stereo not drawn) [Compound Example 108, 2-[4-[4-(2,2-Difluoroethoxy)phenyl]-2H-1,2,3-triazol-5-yl]-8-methyl-2,3-dihydro-1H-quinazolin-4-one] the IC50 [1] was 1000 to 10000 nM, the IC50 (tankyrase 1) was under 20 nM and the IC50 (tankyrase 2) was under 20 nM.

`CN1CCCc2c1nc(N1CCC3(CC1)C(=O)N(CC(F)(F)F)c1cc(OCc4nnn[nH]4)cc(F)c13)[nH]c2=O` [Example 10] showed an IC50 [1] of under 1000 nM.

In the case of `[2H]C([2H])([2H])Oc1ccc(-c2n[nH]nc2C2NC(=O)c3cccc(C)c3N2)cc1` (stereo not drawn) [Compound Example 107, 8-Methyl-2-[5-(4-(trideuteriomethoxy)phenyl)-2H-1,2,3-triazol-4-yl]-2,3-dihydro-1H-quinazolin-4-one], the IC50 [1] is reported as under 1000 nM, the IC50 (tankyrase 1) is reported as under 20 nM and the IC50 (tankyrase 2) is reported as under 20 nM.

Work on `CCOc1ccc(-c2n[nH]cc2C2NC(=O)c3cccc(C)c3N2)cc1` (stereo not drawn) [Compound Example 103, 2-[5-(4-Ethoxyphenyl)-1H-pyrazol-4-yl]-8-methyl-2,3-dihydro-1H-quinazolin-4-one] yielded an IC50 [1] of 1000 to 10000 nM, an IC50 (tankyrase 1) of under 20 nM and an IC50 (tankyrase 2) of under 20 nM.

For `C[C@@H]1CN(c2cc(F)c3c(c2)N(C)C(=O)C32CCN(c3nc4c(c(=O)[nH]3)CCCN4)CC2)C[C@H](C)O1` [Example 23], the IC50 [1] was under 1000 nM, the IC50 (tankyrase 1) was under 20 nM and the IC50 (tankyrase 2) was under 20 nM.

With `CN1CCCc2c1nc(N1CCC3(CC1)C(=O)N(C)c1cc(C4CCC(O)CC4)cc(F)c13)[nH]c2=O` (stereo not drawn) [Example 22] the IC50 [1] was under 1000 nM, the IC50 (tankyrase 1) was under 20 nM and the IC50 (tankyrase 2) was 20 to 200 nM.

In the case of `CN1CCCc2c1nc(N1CCC3(CC1)C(=O)N(C)c1cc(OCC4COC4)cc(F)c13)[nH]c2=O` [Example 6], the IC50 [1] is reported as under 1000 nM.

`CN1c2ccccc2C(=O)NC1c1c[nH]nc1-c1cccc(F)c1` (stereo not drawn) [Compound Example 102, 2-[3-(3-Fluorophenyl)-1H-pirazol-4-yl]-1-methyl-2,3-dihydroquinazolin-4-one] showed an IC50 [1] of 1000 to 10000 nM, an IC50 (tankyrase 1) of under 20 nM and an IC50 (tankyrase 2) of under 20 nM.

`C[C@@H]1CN(c2cc(F)c3c(c2)N(C)C(=O)C32CCN(c3nc4c(c(=O)[nH]3)CCCN4C)CC2)C[C@H](C)O1` [Example 19] gave an IC50 [1] of under 1000 nM.

Compound `CN1CCCc2c1nc(N1CCC3(CC1)C(=O)N(C)c1cc(N4CCC(C(=O)O)CC4)cc(F)c13)[nH]c2=O` [Example 11] has an IC50 [1] of under 1000 nM.

Work on `CN1CCCc2c(O)nc(N3CCC4(CC3)C(=O)N(CC(C)(C)O)c3cccc(F)c34)nc21` [Example 15] yielded an IC50 [1] of under 1000 nM.

`CN1CCCc2c1nc(N1CCC3(CC1)C(=O)N(C)c1cc(N4CCC(C#N)CC4)cc(F)c13)[nH]c2=O` [Example 21] gave an IC50 [1] of under 1000 nM.

With `COc1ccc(-c2n[nH]nc2C2NC(=O)c3cccc4c3N2CC4)cc1` (stereo not drawn) [Compound Example 106, 11-[5-(4-Methoxyphenyl)-2H-1,2,3-triazol-4-yl]-1,10-diazatricyclo[6.3.1.0^4,12]dodeca-4(12),5,7-trien-9-one] the IC50 [1] was 1000 to 10000 nM, the IC50 (tankyrase 1) was under 20 nM and the IC50 (tankyrase 2) was under 20 nM.

With `CN1CCCc2c1nc(N1CCC3(CC1)C(=O)N(CC#N)c1cc(F)cc(F)c13)[nH]c2=O` [Example 3] the IC50 [1] was under 1000 nM.

`COC1CCN(c2cc(F)c3c(c2)N(C)C(=O)C32CCN(c3nc4c(c(=O)[nH]3)CCCN4C)CC2)CC1` [Example 20] was tested, and the IC50 [1] was under 1000 nM.

Compound `CN1CCCc2c1nc(N1CCC3(CC1)C(=O)N(C)c1c(OC4CCOC4)ccc(Cl)c13)[nH]c2=O` (stereo not drawn) [Example 13] has an IC50 [1] of under 1000 nM, an IC50 (tankyrase 1) of under 20 nM and an IC50 (tankyrase 2) of under 20 nM.

Work on `C[C@@H]1CN(c2cc(F)c3c(c2)N(CC(F)(F)F)C(=O)C32CCN(c3nc4c(c(=O)[nH]3)CCCN4)CC2)C[C@H](C)O1` [Example 24] yielded an IC50 [1] of under 1000 nM, an IC50 (tankyrase 1) of under 20 nM and an IC50 (tankyrase 2) of under 20 nM.

For `CN1CCCc2c1nc(N1CCC3(CC1)C(=O)N(CC(F)(F)F)c1cc(OCC(=O)O)cc(F)c13)[nH]c2=O` [Example 9], the IC50 [1] was under 1000 nM, the IC50 (tankyrase 1) was under 20 nM and the IC50 (tankyrase 2) was under 20 nM.

For `COc1cc(F)c2c(c1)N(CCO)C(=O)C21CCN(c2nc3c(c(=O)[nH]2)CCCN3C)CC1` [Example 2], the IC50 [1] was under 1000 nM.

Work on `CN1CCN(c2cc(F)c3c(c2)N(C)C(=O)C32CCN(c3nc4c(c(=O)[nH]3)CCCN4C)CC2)CC1` [Example 5] yielded an IC50 [1] of under 1000 nM.

Work on `CN1CCCc2c1nc(N1CCC3(CC1)C(=O)N(C)c1cc(N4CCN(S(C)(=O)=O)CC4)cc(F)c13)[nH]c2=O` [Example 17] yielded an IC50 [1] of under 1000 nM.

`COc1ccc(-c2n[nH]nc2C2NC(=O)c3ccccc3N2C)cc1` (stereo not drawn) [Compound Example 104, 2-[5-(4-Methoxyphenyl)-2H-1,2,3-triazol-4-yl]-1-methyl-2,3-dihydroquinazolin-4-one] gave an IC50 [1] of 1000 to 10000 nM, an IC50 (tankyrase 1) of under 20 nM and an IC50 (tankyrase 2) of under 20 nM.

With `COc1cc(F)c2c(c1)N(CC#N)C(=O)C21CCN(c2nc3c(c(=O)[nH]2)CCCN3C)CC1` [Example 4] the IC50 [1] was under 1000 nM.

`COc1ccc(-c2n[nH]cc2C2NC(=O)c3ccccc3N2C)cc1` (stereo not drawn) [Compound Example 109, 2-[5-(4-Methoxyphenyl)-1H-pyrazol-4-yl]-1-methyl-2,3-dihydroquinazolin-4-one] gave an IC50 [1] of at least 10000 nM, an IC50 (tankyrase 1) of under 20 nM and an IC50 (tankyrase 2) of under 20 nM.

`COc1ccc(-c2n[nH]nc2C2NC(=O)c3cccc(C)c3N2)cc1` (stereo not drawn) [Compound Example 105, 2-[5-(4-Methoxyphenyl)-2H-1,2,3-triazol-4-yl]-8-methyl-2,3-dihydro-1H-quinazolin-4-one] was tested, and the IC50 [1] was under 1000 nM, the IC50 (tankyrase 1) was under 20 nM and the IC50 (tankyrase 2) was under 20 nM.

Work on `CN1CCCc2c1nc(N1CCC3(CC1)C(=O)N(C)c1cc(N4CC(C(=O)O)C4)cc(F)c13)[nH]c2=O` [Example 12] yielded an IC50 [1] of under 1000 nM.

With `CN1CCN(CCOc2cc(F)c3c(c2)N(CC(F)(F)F)C(=O)C32CCN(c3nc4c(c(=O)[nH]3)CCCN4C)CC2)CC1` [Example 8] the IC50 [1] was under 1000 nM.
